Experimental data reported in patent US20110104159A1, “COMPOSITIONS AND METHODS FOR TREATING, CONTROLLING, REDUCING, AMELIORATING, OR PREVENTING ALLERGY” (priority 2006, published 2011).
Where “and” joins values, the source holds several entries; their conditions need not be identical. Identical values can stand only once.

What was measured:
MPO = assay: Myeloperoxidase (MPO) activity in iris-ciliary body; assay type: in vivo, Rabbit
Description: 2.3.2.1 Phosphate Buffer (50 mM; pH=6)
3.9 g of NaH2PO4 2H2O were dissolved in a volumetric flask to 500 ml with water. The pH was adjusted to pH=6 with 3N NaOH.
0.5 g of hexa-decyl-trimethyl-ammonium bromide was dissolved in 100 ml phosphate buffer.
The solution was prepared freshly. Ten microliters of H2O2 (30 wt. %) were diluted to 1 ml with water (solution A). 7.5 mg o-dianisidine 2HCl were dissolved in 45 ml of phosphate buffer and 75 μl of solution A were added.
(§1) Each rabbit was placed in a restraint device and tagged with the alphanumeric code. The formulations were instilled (50 μl) into the conjunctival sac of both eyes 180, 120, 90 and 30 min before the first paracentesis; then 15, 30, 90 min after the first paracentesis. To perform the first paracentesis the animals were anaesthetized by intravenous injection of 5 mg/kg Zoletil® (Virbac; 2.5 mg/kg tiletamine HCl and 2.5 mg/kg zolazepam HCl) and one drop of local anesthetic (Novesina®, Novartis) was administered to the eye. Anterior chamber paracentesis was performed with a 26 G needle attached to a tuberculin syringe; the needle was introduced into the anterior chamber through the cornea, taking care not to damage the tissues. Two hours after the first paracentesis, the animals were sacrificed with 0.4 ml Tanax® (Intervet International B.V.) and the second paracentesis was performed. About 100 μl of aqueous humor were removed at the second paracentesis. Aqueous humor was immediately split in four aliquots and stored at −80° C. until analysis. Then both eyes were enucleated and the iris-ciliary body was carefully excised, placed in polypropylene tubes, and stored at −80° C. until analysis.
The activity of MPO was measured as previously described by Williams et al. The iris-ciliary bodies were carefully dried, weighed and immersed in 1 ml of hexa-decyl-trimethyl-ammonium bromide solution. Then, the samples were sonicated for 10 sec on ice by a ultrasound homogenizer (HD 2070, Bandelin electronic), freeze-thawed three times, sonicated for 10 sec and centrifuged at 14,000 g for 10 min to remove cellular debris. An aliquot of the supernatant (40-200 μl) was diluted to 3 ml with the o-dianisidine 2HCl/H2O2 solution. The change in absorbance at 460 nm was continuously monitored for 5 min by a spectrophotometer (UV/Vis Spectrometer Lambda EZ 201; Perkin Elmer). The slope of the line (Δ/min) was determined for each sample and used to calculate the number of units of MPO in the tissue as follows:
where ε=11.3 mM^−1. Values were expressed as units of MPO/g of tissue.

PGE2 = assay: Prostaglandin E2 (PGE2) measurement in aqueous humor; assay type: in vivo, Rabbit; settings: 0.5% topical
Description: as §1
For the quantitative determination of PGE2 in the aqueous humor we used the PGE2 Immunoassay kit (R&D Systems; Cat. No. KGE004; Lot. No. 240010). Eleven microliters or 16 μl of aqueous humor were diluted to 110 μl or 160 μl with the calibrator diluent solution provided with the kit. One hundred microliters of samples and of standards were load into a 96-well plate and recorded in a plate layout. Samples were treated following the assay procedure described in the kit. A microplate reader (GDV, Italy; model DV 990 B/V6) set at 450 nm (wavelength correction at 540 nm) was used for making the calibration and analyzing the samples.

leukocytes (PMN) = assay: Leukocytes (PMN) measurement in aqueous humor; assay type: in vivo, Rabbit; settings: 0.5% topical
Description: as §1
For the determination of the number of leukocytes we used a haemocytometer (Improved Neubauer Chamber; Brigth-line, Hausser Scientific) and a Polyvar 2 microscope (Reichert-Jung).

[1] = test system: rabbit paracentesis model; assay: Pupillary diameter measurement, rabbit paracentesis model; assay type: in vivo; settings: 0.5% topical, individual eye
Description: as §1
The pupillary diameter of both eyes was measured with a Castroviejo caliper 180 min and 5 min before the first paracentesis and 5 min before the second paracentesis.

[2] = test system: rabbit paracentesis model; assay: Clinical evaluation by slit lamp (clinical score), rabbit paracentesis model; assay type: in vivo; parameters: key to Clinical Score −180 min / Clinical Score −5 min / Clinical Score +115 min: 0: normal; 1: discrete dilatation of iris and conjunctival vessels; 2: moderate dilatation of iris and conjunctival vessels; 3: intense iridal hyperemia with flare in the anterior chamber; 4: intense iridal hyperemia with flare in the anterior chamber and presence of fibrinous exudates; settings: 0.5% topical
[3] = test system: protein concentration in the aqueous humor; assay: Protein measurement in aqueous humor; assay type: in vivo, Rabbit; settings: 0.5% topical
Description: as §1
For protein concentration determination in the aqueous humor we used the Protein Quantification Kit (Fluka; Cat. No. 77371; Lot. No. 1303129). Five microliters of aqueous humor were diluted to 100 μl with water. Twenty microliters of samples and of standards were load into a 96-well plate and recorded in a plate layout. Samples were treated following the assay procedure described in the kit. A microplate reader (GDV, Italy; model DV 990 B/V6) set at 670 nm was used for making the calibration and analyzing the samples.

[4] = test system: peripheral human blood eosinophils; assay: Spontaneous eosinophil apoptosis (annexin V/PI flow cytometry); settings: 10 μM co-incubated
Description: To assess glucocorticoid-induced apoptosis, cells were double-stained with annexin V-Fluos and propidium iodide (PI). Annexin V-Fluos was used according to the manufacturer's instructions.
The suspension was incubated at room temperature for 10 min and analyzed in the BD FACS Canto II flow cytometry system (Becton, Dickinson and Company, New Jersey, USA). Eosinophils and EoL-1 cells were gated on the basis of their forward and side light scatter, with cell debris excluded from analysis. Apoptotic cells were defined as annexin V^+/PI^− cells. A two-way dot plot was prepared to verify the percentage of apoptotic cells. Annexin V^−/PI^− cells were used as control and annexin V^+/PI^+ cells were considered necrotic.
All data are expressed as mean±S.E.M. for the number of experiments indicated. Statistical comparisons were made by ANOVA and post-hoc Newman-Keuls test with differences of P<0.05 considered significant.

EoL-1 cells = assay: EoL-1 cell apoptosis (annexin V/PI flow cytometry); assay type: cell-based, human; settings: 10 μM co-incubated
Description: EoL-1 cells were grown in RPMI-1640+L-glutamine medium (containing 10% FBS) and kept at 37° C. in a 5% CO2 humidified atmosphere. Before each experiment, the cells were stabilized in serum-depleted media (0.1% FBS) for 24 h before treatments.

With `CCOC(=O)O[C@]1(C(=O)OCCl)CC[C@H]2[C@@H]3CCC4=CC(=O)C=C[C@]4(C)[C@H]3[C@@H](O)C[C@@]21C` [LE, loteprednol etabonate, reference compound] the “MPO activity in iris-ciliary body, statistical comparison with CTR” value (MPO; 0.5% topical, p<0.001) was “statistical significance”, the “Mean MPO Unit/g (MPO activity in iris-ciliary body samples)” value (MPO; 0.5% treatment, group mean, after the second paracentesis) was 0.661 Unit/g and the “MPO Unit/g (raw data of MPO activity in iris-ciliary body samples)” value (MPO; 0.5% treatment, individual eyes (DX/SX) of rabbits, samples collected after the second paracentesis) was 0.30 Unit/g and 0.51 Unit/g and 0.81 Unit/g and 0.60 Unit/g and 0.73 Unit/g and 1.01 Unit/g. For the same compound, the “PGE2 in aqueous humor at the second paracentesis, Mean” value (PGE2; group mean) was 0.672 ng/mL, the “PGE2 in aqueous humor at the second paracentesis” value (PGE2; individual eye sample) was “^2N/D and 0.23 ng/ml and 0.68 ng/ml and 1.10 ng/ml” and the “PGE2 in aqueous humor, statistical comparison with CTR” value (PGE2; p<0.05) was “statistically significant versus CTR”. The “PMN in aqueous humor at the second paracentesis, Mean” value (leukocytes (PMN); group mean) was 28.333 number/μl, the “PMN in aqueous humor at the second paracentesis” value (leukocytes (PMN); individual eye sample) was 40 number/μl (2×) and 20 number/μl (3×) and 30 number/μl and the “Pupillary diameter T2: −5 min” value ([1]; 5 min before first paracentesis) was 6.0 mm (3×) and 6.5 mm (5×). The “Pupillary diameter T3: +115 min” value ([1]; 5 min before second paracentesis) was 4.5 mm and 5.0 mm (2×) and 5.5 mm (2×) and 6.0 mm (3×), the “Pupillary diameter Δ(T3 − T1)” value ([1]; +115 min minus −180 min) was −1.5 mm (2×) and −1.0 mm (3×) and 0.0 mm and −0.5 mm (2×) and the “Pupillary diameter T1: −180 min” value ([1]; basal) was 6.0 mm (3×) and 6.5 mm (5×). For the same compound, the “Clinical Score −5 min” value ([2]; 5 min before first paracentesis, individual eye, scale 0-4) was 0, the “Clinical Score +115 min” value ([2]; 5 min before second paracentesis, individual eye, scale 0-4) was 2 (2×) and 1 (6×) and the “Percentage of eyes with clinical score 1” value ([2]; +115 min, 8 eyes) was 75%. The “Percentage of eyes with clinical score 2” value ([2]; +115 min, 8 eyes) was 25%, the “Clinical Score −180 min” value ([2]; basal, individual eye, scale 0-4) was 0 and the “Clinical score, statistical comparison with CTR” value ([2]; p<0.05) was “significant difference”. For the same compound, the “Percentage of eyes with clinical score 0” value ([2]; −5 min, 8 eyes) was 100%, the “Percentage of eyes with clinical score 0” value ([2]; −180 min, 8 eyes) was 100% and the “Protein in aqueous humor at the second paracentesis, Mean” value ([3]; group mean) was 33.905 mg/mL. For the same compound, the “Protein in aqueous humor at the second paracentesis” value ([3]; individual eye sample) was 36.14 mg/mL and 39.10 mg/mL and 34.69 mg/mL and 26.10 mg/mL and 26.30 mg/mL and 28.16 mg/mL and 40.90 mg/mL and 39.85 mg/mL.

For `CC#C[C@]1(O)CC[C@H]2[C@@H]3CCC4=CC(=O)CCC4=C3[C@@H](c3ccc(N(C)C)cc3)C[C@@]21C` [mifepristone, reference compound], the “Effect on apoptosis induced by 5000 nM BOL-303242-X or dexamethasone in human eosinophils” value [4] was “prevented apoptosis” and the “Effect on apoptosis induced by 5000 nM BOL-303242-X or dexamethasone in EoL-1 cells” value (EoL-1 cells) was “prevented apoptosis”.
